From article PMC8881077 (Journal of Enzyme Inhibition and Medicinal Chemistry, 2022)

Assays:
[1] = test system: NO production in LPS-induced BV-2 cells; test: NO production in BV-2 cells, Griess reaction; type: cell-based; details: for release volume of NO in BV-2 cells without LPS: 3 μM and 9 μM
Description: Compounds 5f and 7k were selected to test the anti-inflammatory potency by measuring the production of inflammatory mediators TNF-α and NO in LPS-induced BV-2 cells[32]^,[33]. • Cytotoxicity of compounds 5f and 7k on BV-2 cells. Firstly, the cytotoxicity of compounds 5f and 7k were tested using an MTT assay. […] In inhibition of LPS-induced, NO production was tested through the Griess reaction method. […] In addition, to further investigate the effects of compounds 5f and 7k on LPS-induced TNF-α production in BV-2 cells, the enzyme-linked immunosorbent assay (ELISA) was used.
Griess reagent system was used to evaluate the inhibition of LPS-induced NO production. The methods of culturing BV-2 cells, setting blank control and adding tested compounds 5f or 7k (1 μM, 3 μM and 9 μM) and LPS were the same as those in the cytotoxicity assay. After that, the cell culture supernatants and different concentrations of NaNO2 as a standard were added to a 96-well plate since the NaNO2 concentration in the supernatant could act as an indicator of NO production. Then, to each well was added the same volume of Griess reagent and incubated at room temperature for 10 min. Finally, the absorbance was monitored at 540 nm using an ELISA plate reader to measure the results of NO production.

[2] = Metal-chelating property, UV-visual spectrometry; type: physicochemical; details: for molar ratio at intersection: complex with Cu^2+; for maximum absorption wavelength after adding AlCl3: compound and AlCl3 37.5 μM in methanol; for maximum absorption wavelength after adding CuCl2: compound and CuCl2 37.5 μM in methanol; for maximum absorption after adding FeSO4: compound and FeSO4 37.5 μM in methanol; for maximum absorption after adding ZnCl2: compound and ZnCl2 37.5 μM in methanol
Description: The chelating property of compounds 5f and 7k were determined by UV-visual spectrometry and biometals such as Cu^2+, Zn^2+, Al^3+ and Fe^2+ were applied[19]^,[20]. […] The stoichiometry of the 5f-Cu^2+ complex was determined using the molar ratio method by preparing solutions of compound 5f with increasing amounts of CuCl2 at 386 nm.
Further, the stoichiometry of the 7k-Cu^2+ complex was determined using the molar ratio method at 385 nm.
The metal chelation property was investigated by UV absorption in a Shimadzu UV-2450 spectrophotometer. The detailed procedure referenced our previous work[20]^,[22].

[3] = test system: BV-2 cells; test: Cytotoxicity on BV-2 cells, MTT assay; type: cell-based; details: 1 μM, 3 μM and 9 μM
Description: Compounds 5f and 7k were selected to test the anti-inflammatory potency by measuring the production of inflammatory mediators TNF-α and NO in LPS-induced BV-2 cells[32]^,[33]. • Cytotoxicity of compounds 5f and 7k on BV-2 cells. Firstly, the cytotoxicity of compounds 5f and 7k were tested using an MTT assay. […] In inhibition of LPS-induced, NO production was tested through the Griess reaction method. […] […]. In addition, to further investigate the effects of compounds 5f and 7k on LPS-induced TNF-α production in BV-2 cells, the enzyme-linked immunosorbent assay (ELISA) was used. […].
The anti-neuroinflammatory property of compounds 5f and 7k was assessed using BV-2 cells by evaluating the level of NO production and TNF-α production[32]^,[33]. Firstly, the cytotoxicity of compounds 5f and 7k was tested on BV-2 cells using an MTT assay. BV-2 cells were seeded in DMEM (100 μL) and cultured in a 96-well cell culture microplate and incubated in a humidified incubator containing 5% CO2 at 37 °C for 24 h. Then, 10 μL of 5f or 7k were added to cells in triplicate wells, followed by incubation for another 30 min. […] Finally, the crystals obtained were dissolved in DMSO (200 μ L) and OD values were measured at 490 nm. The results were recorded and expressed as the percent cell viability compared to the control group.

[4] = target: Aβ1–42 (Homo sapiens, UniProt P05067); test: Self-induced Aβ1–42 aggregation, Thioflavin T fluorescence; type: biochemical; details: tested compounds and Aβ1–42 25 μM
Description: The Thioflavin T-based flurometric assay was employed to test the inhibition potency on self-induced/Cu^2+-induced Aβ1-42 aggregation.

[5] = target: T1, huBuChE (Homo sapiens, UniProt P06276); test: biochemical; type: biochemical; details: from human serum; read-out: IC50 ± SD huBuChE
T1 construct: BuChE from rat serum or human serum (Sigma Co.); purchased Sigma Co; host or cells: human serum
Description: The AChE and BuChE inhibitory activities of the synthesised compounds were evaluated using the Ellman assay with slight modification. AChE from 5% rat cortex homogenate or human erythrocytes (Sigma Co.). BuChE from rat serum or human serum (Sigma Co.).

[6] = test system: scopolamine-induced mice memory impairment; test: Step-down passive avoidance task; details: scopolamine 3 mg/kg
Description: Sixty mice were randomly divided into six groups. […] After 30 min, memory impairment was induced by administering scopolamine (3 mg/kg).

[7] = in vitro; details: PAMPA
[8] = test system: SPF Kunming mice; test: Acute toxicity; type: in vivo
Description: Kunming mice at a body weight of 18–22 g (six weeks old, either gender) were supplied by the Centre of Experimental Animals of Sichuan Academy of Chinese Medicine Sciences (eligibility certification no. SCXK-Chuan2018-19). Mice were maintained under standard conditions with a 12 h:12 h light-dark cycle at 20−22 °C with a relative humidity of 60 − 70%. Sterile food and water were provided according to institutional guidelines. Prior to each experiment, mice were fasted overnight and allowed free access to water. […] After the administration of the compound 5f, the mice were observed continuously for the first 4 h for any abnormal behaviour and mortality changes, intermittently for the next 24 h, and occasionally thereafter for 14 days for the onset of any delayed effects. All animals were sacrificed on the 14th day after drug administration and were macroscopically examined for possible damage to the heart, liver, and kidneys.

T1 sequence (P06276 29-602): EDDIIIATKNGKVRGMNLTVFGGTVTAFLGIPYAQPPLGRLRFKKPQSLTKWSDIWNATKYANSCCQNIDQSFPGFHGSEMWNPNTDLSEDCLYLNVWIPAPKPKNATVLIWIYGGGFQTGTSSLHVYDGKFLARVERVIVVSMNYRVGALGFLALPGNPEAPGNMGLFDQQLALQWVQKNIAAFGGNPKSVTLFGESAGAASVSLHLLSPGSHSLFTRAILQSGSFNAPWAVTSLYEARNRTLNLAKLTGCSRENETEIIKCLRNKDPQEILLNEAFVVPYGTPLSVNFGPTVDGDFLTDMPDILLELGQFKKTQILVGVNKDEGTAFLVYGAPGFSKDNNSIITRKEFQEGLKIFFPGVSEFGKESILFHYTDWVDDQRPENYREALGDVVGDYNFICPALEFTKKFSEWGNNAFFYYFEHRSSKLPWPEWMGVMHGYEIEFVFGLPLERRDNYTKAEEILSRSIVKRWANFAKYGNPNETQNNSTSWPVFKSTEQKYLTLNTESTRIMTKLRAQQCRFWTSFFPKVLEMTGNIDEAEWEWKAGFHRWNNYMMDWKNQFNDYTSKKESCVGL
Sequence of Aβ1–42 (P05067 672-713): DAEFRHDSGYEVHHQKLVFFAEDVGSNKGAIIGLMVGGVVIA

Row | Molecule | release volume of NO in BV-2 cells without LPS ([1]; 1 μM) | molar ratio at intersection [2] | maximum absorption wavelength after adding AlCl3 [2] | maximum absorption wavelength after adding CuCl2 [2] [nm] | maximum absorption after adding FeSO4 [2] | maximum absorption after adding ZnCl2 [2] | cell viability of BV-2 cells [3] | IC50 [5] [µM] | other results
1 | 7-((6-(benzyl(ethyl)amino)hexyl)oxy)-2–(4-((6-(benzyl(ethyl)amino)hexyl)oxy)phenyl)-5-hydroxychroman-4-one [Compound 7k] | did not produce significant change | 1.1 | did not show an obvious change | 385 | did not show an obvious change | did not show an obvious change | did not show obvious change | 8.2 ± 0.37 | inhibition rate of LPS-induced NO production ([1]; 1 μM, 1 μg/mL LPS): 26.7%; inhibition rate of LPS-induced NO production ([1]; 3 μM, 1 μg/mL LPS): 36.2%; inhibition rate of LPS-induced NO production ([1]; 9 μM, 1 μg/mL LPS): 48.5%; Inhibition of Aβ1–42 aggregation, Self-induced (%) [4]: 43.8 ± 0.51%
2 | CCN(CCCCCOc1cc(O)c2c(c1)OC(c1ccc(O)cc1)CC2=O)Cc1ccccc1 (stereo not shown) [Compound 5f, 7-((5-(benzyl(ethyl)amino)pentyl)oxy)-5-hydroxy-2–(4-hydroxyphenyl)chroman-4-one] | did not produce significant change | 1.1 | 388 nm | 386 | did not present obvious shift | did not present obvious shift | did not show obvious change | 6.3 ± 0.74 | inhibition at 1 µM ([1]; Mus musculus, BV-2, 1 μM, 1 μg/mL LPS, read-out: inhibition rate of LPS-induced NO production): 37.6%; inhibition at 3 µM ([1]; Mus musculus, BV-2, 3 μM, 1 μg/mL LPS, read-out: inhibition rate of LPS-induced NO production): 52.1%; inhibition at 9 µM ([1]; Mus musculus, BV-2, 9 μM, 1 μg/mL LPS, read-out: inhibition rate of LPS-induced NO production): 63.8%; step-down latency ([6]; 1.9 mg/kg): 153.7 s; step-down latency ([6]; 5.7 mg/kg): 183.4 s; step-down latency ([6]; 17.1 mg/kg): 207.8 s; Papp at 100 μg/mL [7]: 6.9 ± 0.36 ×10⁻⁶ cm/s; acute toxicity, recovery ([8]; after 24h): returned to normal; acute toxicity, heart, liver, spleen, lung and kidney ([8]; after 7 days): no abnormalities were observed; acute toxicity, observed signs ([8]; dose of 500 mg/kg, intragastric): decreased spontaneous activity and movement, drowsiness, dyspnoea and reduced breathing rate; inhibition at 25 µM [4]: 62.1 ± 0.38%
